According to patent publication US20250171495A1, “MUTLI-TARGETED SERINE PROTEASE INHIBITORS FOR TREATMENT OF CANCER AND VIRAL INFECTION” (Washington University, priority 2023, published 2025):
Like-named read-outs stand apart in the source and are kept apart here.

What was measured:
Format in all cases: biochemical
[1] = target: Thrombin (Homo sapiens, UniProt P00734); assay: Fluorogenic assay, thrombin
[2] = target: TMPRSS2 (Homo sapiens, UniProt O15393); assay: Fluorogenic kinetic enzyme inhibitor assay, TMPRSS2; parameters: purchased Cusabio Technology CSB-YP023924HU; details: read-out: TMPRSS2 IC50
[3] = target: T1, Factor Xa (Homo sapiens, UniProt P00742); assay: Fluorogenic assay, Factor Xa
T1 construct: TMPRSS2; Matriptase; Hepsin; HGFA; Thrombin; Factor Xa

[4] = target: T2, hepsin (Homo sapiens, UniProt P05981); assay: Fluorogenic kinetic enzyme inhibitor assay, hepsin
T2 construct: purchased R&D Systems 4776-SE-010

[5] = target: T3, HGFA (Homo sapiens, UniProt Q04756); assay: Fluorogenic kinetic enzyme inhibitor assay, HGFA
T3 construct: purchased R&D Systems 1514-SE-010
T3 sequence (Q04756 408-655 limits assumed): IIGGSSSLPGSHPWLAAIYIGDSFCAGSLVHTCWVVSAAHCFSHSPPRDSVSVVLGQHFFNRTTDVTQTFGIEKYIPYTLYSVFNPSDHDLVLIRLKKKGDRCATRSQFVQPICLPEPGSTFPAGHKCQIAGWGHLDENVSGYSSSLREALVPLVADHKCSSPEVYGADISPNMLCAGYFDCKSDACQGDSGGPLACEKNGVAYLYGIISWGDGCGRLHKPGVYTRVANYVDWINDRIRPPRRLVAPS
T3 sequence (Q04756 373-407 partner limits assumed): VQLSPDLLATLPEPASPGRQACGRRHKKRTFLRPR

[6] = target: T4, matriptase (Homo sapiens, UniProt Q9Y5Y6); assay: Fluorogenic kinetic enzyme inhibitor assay, matriptase
T4 construct: purchased R&D Systems 3946-SEB-010
T4 sequence (Q9Y5Y6 615-855 limits assumed): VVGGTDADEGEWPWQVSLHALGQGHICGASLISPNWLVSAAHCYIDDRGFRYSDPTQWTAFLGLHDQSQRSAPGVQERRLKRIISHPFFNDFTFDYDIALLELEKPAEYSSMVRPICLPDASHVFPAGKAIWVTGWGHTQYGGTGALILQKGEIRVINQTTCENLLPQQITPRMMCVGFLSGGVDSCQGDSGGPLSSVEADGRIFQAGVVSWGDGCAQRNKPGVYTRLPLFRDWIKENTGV

T2 sequence (P05981 163-417 limits assumed): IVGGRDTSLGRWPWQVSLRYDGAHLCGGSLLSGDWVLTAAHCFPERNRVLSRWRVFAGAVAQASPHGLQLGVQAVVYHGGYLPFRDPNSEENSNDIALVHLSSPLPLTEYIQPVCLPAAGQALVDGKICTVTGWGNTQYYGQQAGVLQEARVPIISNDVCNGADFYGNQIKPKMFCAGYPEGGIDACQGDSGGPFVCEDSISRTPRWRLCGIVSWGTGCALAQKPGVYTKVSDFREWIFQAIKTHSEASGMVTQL
T2 sequence (P05981 1-162 partner limits assumed): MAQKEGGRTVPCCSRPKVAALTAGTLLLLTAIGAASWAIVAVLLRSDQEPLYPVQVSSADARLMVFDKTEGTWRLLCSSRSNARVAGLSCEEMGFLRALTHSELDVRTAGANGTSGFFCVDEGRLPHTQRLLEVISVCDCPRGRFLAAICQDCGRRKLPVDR
Sequence of TMPRSS2 (O15393 106-492 limits assumed): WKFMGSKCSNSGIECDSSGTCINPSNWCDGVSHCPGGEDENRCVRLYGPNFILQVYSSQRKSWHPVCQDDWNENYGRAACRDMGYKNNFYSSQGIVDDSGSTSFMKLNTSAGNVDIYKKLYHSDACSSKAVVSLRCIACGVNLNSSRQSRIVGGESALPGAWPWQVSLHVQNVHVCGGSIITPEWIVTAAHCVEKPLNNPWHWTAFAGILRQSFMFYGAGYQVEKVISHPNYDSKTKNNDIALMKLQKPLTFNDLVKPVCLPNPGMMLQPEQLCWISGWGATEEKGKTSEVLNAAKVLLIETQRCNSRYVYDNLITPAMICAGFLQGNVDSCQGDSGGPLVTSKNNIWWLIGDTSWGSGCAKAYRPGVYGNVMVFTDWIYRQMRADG
T1 sequence (P00742 235-488 limits assumed): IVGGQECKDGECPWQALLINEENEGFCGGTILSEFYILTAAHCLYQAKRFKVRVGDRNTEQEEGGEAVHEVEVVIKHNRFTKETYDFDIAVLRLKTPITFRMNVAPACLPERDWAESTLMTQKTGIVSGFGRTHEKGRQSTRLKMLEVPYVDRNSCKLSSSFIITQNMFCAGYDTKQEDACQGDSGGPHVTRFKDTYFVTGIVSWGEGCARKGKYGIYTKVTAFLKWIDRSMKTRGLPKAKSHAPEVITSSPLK
T1 sequence (P00742 41-179 partner limits assumed): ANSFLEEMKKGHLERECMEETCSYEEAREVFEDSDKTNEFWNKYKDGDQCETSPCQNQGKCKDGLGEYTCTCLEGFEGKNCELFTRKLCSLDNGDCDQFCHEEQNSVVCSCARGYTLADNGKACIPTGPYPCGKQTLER

SMILES | IC50 [1] | IC50 [2] | IC50 ([3]; read-out: Factor Xa IC50) | IC50 ([4]; read-out: Hepsin IC50) | IC50 ([5]; read-out: HGFA IC50) | IC50 ([6]; read-out: Matriptase IC50) | IC50 [6] | IC50 [4] | IC50 [5] | IC50 [3]
CN(C)[C@@H](CCC(N)=O)C(=O)N[C@@H](Cc1ccccc1)C(=O)N[C@@H](CCCNC(=N)N)C(=O)c1nc2ccccc2s1 [CA1041-2, N-[(S)-1-[N-(S)-1-[(1,3-benzothiazol-2-yl)carbonyl]-4-guanidinobutylcarbamoyl]-2-phenylethyl](S)-2-(dimethylamino)glutaramide] | > 20000 nM | 0.86 nM | 3300 nM | 1.89 nM | 609 nM | 3.5 nM |  |  |  | 
N=C(N)NCCC[C@H](NC(=O)[C@H](Cc1ccccc1)NC(=O)[C@H](CCC(N)=O)NC(=O)c1ccccc1)C(=O)c1nc2ccccc2s1 [CA1043] | > 20000 nM | 0.081 nM | 1590 nM | 0.11 nM | 8.45 nM | 0.88 nM |  |  |  | 
N=C(N)NCCC[C@@H](NC(=O)[C@H](Cc1ccccc1)NC(=O)[C@H](CCC(N)=O)N1CCCCC1)C(=O)c1nc2ccccc2s1 [CA1046-1, N-[(S)-1-[N-(R)-1-[(1,3-benzothiazol-2-yl)carbonyl]-4-guanidinobutylcarbamoyl]-2-phenylethyl](S)-2-piperidinoglutaramide] | > 20000 nM | 69.2 nM | 12200 nM | 105 nM | > 20000 nM | 1780 nM |  |  |  | 
N=C(N)NCCC[C@H](NC(=O)[C@H](Cc1ccccc1)NC(=O)[C@H](CCC(N)=O)N1CCCCC1)C(=O)c1nc2ccccc2s1 [CA1046-2, N-[(S)-1-[N-(S)-1-[(1,3-benzothiazol-2-yl)carbonyl]-4-guanidinobutylcarbamoyl]-2-phenylethyl](S)-2-piperidinoglutaramide] | > 20000 nM | 8.23 nM | 2070 nM | 0.37 nM | 704 nM | 41.4 nM |  |  |  | 
CC(=O)N[C@@H](Cc1cncn1COCc1ccccc1)C(=O)N[C@@H](CCCCNC(=N)N)C(=O)N[C@@H](CCC(C)C)C(=O)N[C@H](CCCNC(=N)N)C(=O)c1nc2ccccc2s1 [JH1143-1, N-[(R)-1-[(1,3-benzothiazol-2-yl)carbonyl]-4-guanidinobutyl](S)-2-[(S)-1-[(S)-2-acetylamino-3-{1-[(benzyloxy)methyl]-5-imidazolyl}propionylamino]-5-guanidinopentylcarbonylamino]-5-methylhexanamide] | 4890 nM | 7.54 nM | 4800 nM | 1.92 nM | 543 nM |  | 3.02 nM |  |  | 
N=C(N)NCCC[C@H](NC(=O)[C@H](Cc1ccccc1)NC(=O)OCC1c2ccccc2-c2ccccc21)C(=O)c1nc2ccccc2s1 [MF1133, (S)-1-[N-(S)-1-[(1,3-benzothiazol-2-yl)carbonyl]-4-guanidinobutylcarbamoyl]-2-phenylethyl(9H-fluoren-9-yl)methanecarbamate] | > 20000 nM | 19.7 nM | 28.4 nM | 2680 nM | 1930 nM | 2560 nM |  |  |  | 
CSCC[C@H](NC(C)=O)C(=O)N[C@@H](CCC(N)=O)C(=O)N[C@@H](Cc1ccccc1)C(=O)N[C@@H](CCCNC(=N)N)C(=O)c1nc2ccccc2s1 [MM3130, N-[(S)-1-[N-(S)-1-[(1,3-benzothiazol-2-yl)carbonyl]-4-guanidinobutylcarbamoyl]-2-phenylethyl](S)-2-[(S)-2-acetylamino-4-(methylthio)butyrylamino] glutaramide] | > 20000 nM | 0.142 nM | 342 nM |  |  |  | 0.552 nM | 0.134 nM | 36.4 nM | 
CC(=O)N[C@@H](CC(C)C)C(=O)N[C@@H](CCC(N)=O)C(=O)N[C@@H](Cc1ccccc1)C(=O)N[C@@H](CCCNC(=N)N)C(=O)c1nc2ccccc2s1 [MM3131, N-[(S)-1-[N-(S)-1-[(1,3-benzothiazol-2-yl)carbonyl]-4-guanidinobutylcarbamoyl]-2-phenylethyl](S)-2-[(S)-2-acetylamino-4-methylvalerylamino]glutaramide] | > 20000 nM | 0.031 nM |  |  |  |  | 1.8 nM | 0.247 nM | 98.2 nM | 219 nM
CCC(C)[C@H](NC(C)=O)C(=O)N[C@@H](CCC(N)=O)C(=O)N[C@@H](C)C(=O)N[C@@H](CCCNC(=N)N)C(=O)c1nc2ccccc2s1 (stereo partly drawn) [MM3178, N-[(S)-1-[N-(S)-1-[(1,3-benzothiazol-2-yl)carbonyl]-4-guanidinobutylcarbamoyl]ethyl](S)-2-[(2S)-2-acetylamino-3-methylvalerylamino]glutaramide] | > 20000 nM | 0.227 nM | 170 nM | 1.25 nM | > 20000 nM |  | 0.1 nM |  |  | 
CCC(C)[C@H](NC(C)=O)C(=O)N[C@@H](CCC(N)=O)C(=O)N[C@@H](Cc1c[nH]c2ccccc12)C(=O)N[C@@H](CCCNC(=N)N)C(=O)c1nc2ccccc2s1 (stereo partly drawn) [MM3187, N-[(S)-2-(3-indolyl)-1-[N-(S)-1-[(1,3-benzothiazol-2-yl)carbonyl]-4-guanidinobutylcarbamoyl]ethyl](S)-2-[(2S)-2-acetylamino-3-methylvalerylamino]glutaramide] | > 20000 nM | 2.19 nM | 129 nM | 0.319 nM | 1450 nM |  | 1.23 nM |  |  | 
CC(=O)N[C@H](Cc1c[nH]c2ccccc12)C(=O)N[C@@H](Cc1ccccc1)C(=O)N[C@@H](CCCNC(=N)N)C(=O)c1nc2ccccc2s1 [PK-1-89A1, N-[(S)-1-[(1,3-benzothiazol-2-yl)carbonyl]-4-guanidinobutyl](S)-2-[(R)-2-acetylamino-3-(3-indolyl)propionylamino]-3-phenylpropionamide] | > 20000 nM | 0.156 nM | 98 nM | 1.1 nM | 27 nM | 2.6 nM |  |  |  | 
CC(=O)N[C@H](Cc1c[nH]c2ccccc12)C(=O)N[C@@H](CC(C)C)C(=O)N[C@@H](CCCNC(=N)N)C(=O)c1nc2ccccc2s1 [PK-1-91, N-[(S)-1-[(1,3-benzothiazol-2-yl)carbonyl]-4-guanidinobutyl](S)-2-[(R)-2-acetylamino-3-(3-indolyl)propionylamino]-4-methylvaleramide] | 9370 nM | 0.026 nM | 1440 nM | 1.6 nM | 104 nM | 39 nM |  |  |  | 
CC(=O)N[C@@H](Cc1c[nH]c2ccccc12)C(=O)N[C@@H](Cc1ccccc1)C(=O)N[C@@H](CCCNC(=N)N)C(=O)c1nc2ccccc2s1 [PK-1-102A1, N-[(S)-1-[(1,3-benzothiazol-2-yl)carbonyl]-4-guanidinobutyl](S)-2-[(S)-2-acetylamino-3-(3-indolyl)propionylamino]-3-phenylpropionamide] | > 20000 nM | 0.388 nM | 21.6 nM | 7.6 nM | 329 nM | 5.7 nM |  |  |  | 
CC(=O)N[C@@H](Cc1c[nH]c2ccccc12)C(=O)N[C@@H](CC(C)C)C(=O)N[C@@H](CCCNC(=N)N)C(=O)c1nc2ccccc2s1 [PK-1-104, N-[(S)-1-[(1,3-benzothiazol-2-yl)carbonyl]-4-guanidinobutyl](S)-2-[(S)-2-acetylamino-3-(3-indolyl)propionylamino]-4-methylvaleramide] | 17000 nM | 1.3 nM | 890 nM | 0.93 nM | 76.3 nM | 25.7 nM |  |  |  | 
